Source: PubChem BioAssay AID1963825 (Molecular Pharmacology Branch, DTP, NCI, 2024)

Assay: Anticancer human tumor 997537-175-T-J1-PDC patient-derived colon adenocarcinoma cell line growth inhibition [POLQ]
Conditions: 997537-175-T-J1-PDC complex spheroid viability, combination with POLQ inhibitors; for IC50: curve of first compound; for viability, T/C: stronger effect = lower value
Procedure, shortened: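 Patient-derived tumour cells were co-cultured with HUVEC and mesenchymal stem cells as multicellular spheroids at 37 °C. They were treated with POLQ inhibitors (novobiocin, ART-558, RP6685) alone or combined with other agents. Top concentrations were at or near clinical Cmax (otherwise 10 microM; SN-38 at 1 microM), decreasing in half-log steps.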

[1] = second compound 0.0316 µM, first compound 0.0316 µM
[2] = second compound 0.0316 µM, first compound 0.1 µM
[3] = second compound 0.0316 µM, first compound 0.316 µM
[4] = second compound 0.0316 µM, first compound 1 µM
[5] = second compound 0.0316 µM, first compound 3.16 µM
[6] = second compound 0.0316 µM, first compound 10 µM
[7] = second compound 0.1 µM, first compound 0.0316 µM
[8] = second compound 0.1 µM, first compound 0.1 µM
[9] = second compound 0.1 µM, first compound 0.316 µM
[10] = second compound 0.1 µM, first compound 1 µM
[11] = second compound 0.1 µM, first compound 3.16 µM
[12] = second compound 0.1 µM, first compound 10 µM
[13] = second compound 0.316 µM, first compound 0.0316 µM
[14] = second compound 0.316 µM, first compound 0.1 µM
[15] = second compound 0.316 µM, first compound 0.316 µM
[16] = second compound 0.316 µM, first compound 1 µM
[17] = second compound 0.316 µM, first compound 3.16 µM
[18] = second compound 0.316 µM, first compound 10 µM
[19] = second compound 1 µM, first compound 0.0316 µM
[20] = second compound 1 µM, first compound 0.1 µM
[21] = second compound 1 µM, first compound 0.316 µM
[22] = second compound 1 µM, first compound 1 µM
[23] = second compound 1 µM, first compound 3.16 µM
[24] = second compound 1 µM, first compound 10 µM
[25] = second compound 3.16 µM, first compound 0.0316 µM
[26] = second compound 3.16 µM, first compound 0.1 µM
[27] = second compound 3.16 µM, first compound 0.316 µM
[28] = second compound 3.16 µM, first compound 1 µM
[29] = second compound 3.16 µM, first compound 3.16 µM
[30] = second compound 3.16 µM, first compound 10 µM
[31] = second compound 10 µM, first compound 0.0316 µM
[32] = second compound 10 µM, first compound 0.1 µM
[33] = second compound 10 µM, first compound 0.316 µM
[34] = second compound 10 µM, first compound 1 µM
[35] = second compound 10 µM, first compound 3.16 µM
[36] = second compound 10 µM, first compound 10 µM
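Also: luminescence signal used as a surrogate for viable cells; spheroids exposed to drugs for seven days before readout.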

C#Cc1c(F)ccc2cc(O)cc(-c3ncc4c(N5CC6CCC(C5)N6)nc(OCC56CCCN5CC(F)C6)nc4c3F)c12 (stereo not given) + Cc1cccc(N(C)C(=O)C2C(O)CCN2c2nc(C)cc(C(F)(F)F)c2C#N)c1
IC50 (second compound 0.0316 µM): > 10 µM
IC50 (second compound 0.1 µM): > 10 µM
IC50 (second compound 0.316 µM): > 10 µM
IC50 (second compound 1 µM): > 10 µM
IC50 (second compound 3.16 µM): > 10 µM
IC50 (second compound 10 µM): > 10 µM
viability, T/C [1]: 95.2%
viability, T/C [2]: 106%
viability, T/C [3]: 89.2%
viability, T/C [4]: 107%
viability, T/C [5]: 108%
viability, T/C [6]: 109%
viability, T/C [7]: 99.2%
viability, T/C [8]: 102%
viability, T/C [9]: 98.2%
viability, T/C [10]: 104%
viability, T/C [11]: 104%
viability, T/C [12]: 108%
viability, T/C [13]: 106%
viability, T/C [14]: 106%
viability, T/C [15]: 91.6%
viability, T/C [16]: 91.7%
viability, T/C [17]: 121%
viability, T/C [18]: 105%
viability, T/C [19]: 109%
viability, T/C [20]: 107%
viability, T/C [21]: 111%
viability, T/C [22]: 100%
viability, T/C [23]: 98.5%
viability, T/C [24]: 102%
viability, T/C [25]: 106%
viability, T/C [26]: 83.5%
viability, T/C [27]: 101%
viability, T/C [28]: 112%
viability, T/C [29]: 101%
viability, T/C [30]: 104%
viability, T/C [31]: 99.8%
viability, T/C [32]: 88.6%
viability, T/C [33]: 101%
viability, T/C [34]: 119%
viability, T/C [35]: 94.1%
viability, T/C [36]: 89%

COc1cccc2c1C(=O)c1c(O)c3c(c(O)c1C2=O)CC(O)(C(=O)CO)CC3OC1CC(N)C(O)C(C)O1 (stereo not given) + COC1C(OC(N)=O)C(O)C(Oc2ccc3c(O)c(NC(=O)c4ccc(O)c(CC=C(C)C)c4)c(=O)oc3c2C)OC1(C)C
IC50 (second compound 0.0316 µM): 2.49 µM
IC50 (second compound 0.1 µM): 1.66 µM
IC50 (second compound 0.316 µM): 2.22 µM
IC50 (second compound 1 µM): 3.23 µM
IC50 (second compound 3.16 µM): 2.03 µM
IC50 (second compound 10 µM): 2.77 µM
viability, T/C [1]: 114%
viability, T/C [2]: 100%
viability, T/C [3]: 98%
viability, T/C [4]: 84.8%
viability, T/C [5]: 40.2%
viability, T/C [6]: 7.93%
viability, T/C [7]: 102%
viability, T/C [8]: 114%
viability, T/C [9]: 95.6%
viability, T/C [10]: 75.4%
viability, T/C [11]: 18.1%
viability, T/C [12]: 10.4%
viability, T/C [13]: 101%
viability, T/C [14]: 99.8%
viability, T/C [15]: 102%
viability, T/C [16]: 96.6%
viability, T/C [17]: 29.2%
viability, T/C [18]: 8.56%
viability, T/C [19]: 94.7%
viability, T/C [20]: 89.8%
viability, T/C [21]: 88%
viability, T/C [22]: 95.1%
viability, T/C [23]: 50.8%
viability, T/C [24]: 9.76%
viability, T/C [25]: 106%
viability, T/C [26]: 119%
viability, T/C [27]: 75.4%
viability, T/C [28]: 77.6%
viability, T/C [29]: 34.8%
viability, T/C [30]: 13.1%
viability, T/C [31]: 96.5%
viability, T/C [32]: 99.3%
viability, T/C [33]: 107%
viability, T/C [34]: 97.4%
viability, T/C [35]: 43.9%
viability, T/C [36]: 7.86%

COc1cc2cc(C(=O)CCC(=O)O)sc2cc1OC + Nc1ccc(C#CCN(C(=O)Cc2ncc(C(F)(F)F)cc2C(F)(F)F)c2ccc(F)cc2)nn1
IC50 (second compound 0.0316 µM): > 10 µM
IC50 (second compound 0.1 µM): > 10 µM
IC50 (second compound 0.316 µM): > 10 µM
IC50 (second compound 1 µM): > 10 µM
IC50 (second compound 3.16 µM): > 10 µM
IC50 (second compound 10 µM): > 10 µM
viability, T/C [1]: 107%
viability, T/C [2]: 107%
viability, T/C [3]: 109%
viability, T/C [4]: 99.7%
viability, T/C [5]: 96.8%
viability, T/C [6]: 96.7%
viability, T/C [7]: 91.2%
viability, T/C [8]: 102%
viability, T/C [9]: 98.2%
viability, T/C [10]: 108%
viability, T/C [11]: 101%
viability, T/C [12]: 105%
viability, T/C [13]: 99.1%
viability, T/C [14]: 105%
viability, T/C [15]: 109%
viability, T/C [16]: 98%
viability, T/C [17]: 91.8%
viability, T/C [18]: 95.4%
viability, T/C [19]: 94.4%
viability, T/C [20]: 89.5%
viability, T/C [21]: 82%
viability, T/C [22]: 105%
viability, T/C [23]: 96.5%
viability, T/C [24]: 89.9%
viability, T/C [25]: 105%
viability, T/C [26]: 101%
viability, T/C [27]: 97.5%
viability, T/C [28]: 86.1%
viability, T/C [29]: 100%
viability, T/C [30]: 92.5%
viability, T/C [31]: 101%
viability, T/C [32]: 91.4%
viability, T/C [33]: 106%
viability, T/C [34]: 111%
viability, T/C [35]: 101%
viability, T/C [36]: 107%

COc1ccc([C@@H](O)c2cc(-c3ncnc4cc(N5CCOCC5)ccc34)c(F)cc2Cl)nn1 + Cc1cccc(N(C)C(=O)C2C(O)CCN2c2nc(C)cc(C(F)(F)F)c2C#N)c1
IC50 (second compound 0.0316 µM): > 10 µM
IC50 (second compound 0.1 µM): > 10 µM
IC50 (second compound 0.316 µM): > 10 µM
IC50 (second compound 1 µM): > 10 µM
IC50 (second compound 3.16 µM): > 10 µM
IC50 (second compound 10 µM): > 10 µM
viability, T/C [1]: 102%
viability, T/C [2]: 108%
viability, T/C [3]: 103%
viability, T/C [4]: 108%
viability, T/C [5]: 101%
viability, T/C [6]: 84.3%
viability, T/C [7]: 92.3%
viability, T/C [8]: 111%
viability, T/C [9]: 99.8%
viability, T/C [10]: 106%
viability, T/C [11]: 101%
viability, T/C [12]: 77.7%
viability, T/C [13]: 104%
viability, T/C [14]: 109%
viability, T/C [15]: 106%
viability, T/C [16]: 104%
viability, T/C [17]: 95.3%
viability, T/C [18]: 82.9%
viability, T/C [19]: 98.5%
viability, T/C [20]: 102%
viability, T/C [21]: 91.7%
viability, T/C [22]: 109%
viability, T/C [23]: 85.7%
viability, T/C [24]: 69.7%
viability, T/C [25]: 80.8%
viability, T/C [26]: 93.4%
viability, T/C [27]: 110%
viability, T/C [28]: 106%
viability, T/C [29]: 88.8%
viability, T/C [30]: 72.7%
viability, T/C [31]: 101%
viability, T/C [32]: 109%
viability, T/C [33]: 110%
viability, T/C [34]: 112%
viability, T/C [35]: 107%
viability, T/C [36]: 69.8%

O=C(c1cc(Cc2n[nH]c(=O)c3ccccc23)ccc1F)N1CCN(C(=O)C2CC2)CC1 + Nc1ccc(C#CCN(C(=O)Cc2ncc(C(F)(F)F)cc2C(F)(F)F)c2ccc(F)cc2)nn1
IC50 (second compound 0.0316 µM): > 10 µM
IC50 (second compound 0.1 µM): > 10 µM
IC50 (second compound 0.316 µM): > 10 µM
IC50 (second compound 1 µM): > 10 µM
IC50 (second compound 3.16 µM): > 10 µM
IC50 (second compound 10 µM): > 10 µM
viability, T/C [1]: 108%
viability, T/C [2]: 104%
viability, T/C [3]: 100%
viability, T/C [4]: 99.9%
viability, T/C [5]: 95.3%
viability, T/C [6]: 82%
viability, T/C [7]: 108%
viability, T/C [8]: 103%
viability, T/C [9]: 94.4%
viability, T/C [10]: 93.7%
viability, T/C [11]: 84.6%
viability, T/C [12]: 94.8%
viability, T/C [13]: 106%
viability, T/C [14]: 111%
viability, T/C [15]: 104%
viability, T/C [16]: 98.3%
viability, T/C [17]: 93.5%
viability, T/C [18]: 98.9%
viability, T/C [19]: 104%
viability, T/C [20]: 98.2%
viability, T/C [21]: 103%
viability, T/C [22]: 104%
viability, T/C [23]: 93.2%
viability, T/C [24]: 99.3%
viability, T/C [25]: 96.7%
viability, T/C [26]: 94.4%
viability, T/C [27]: 98.8%
viability, T/C [28]: 90.1%
viability, T/C [29]: 98.5%
viability, T/C [30]: 95.3%
viability, T/C [31]: 108%
viability, T/C [32]: 103%
viability, T/C [33]: 97.3%
viability, T/C [34]: 91.3%
viability, T/C [35]: 112%
viability, T/C [36]: 98.9%
